Assay results reported in ChEMBL document CHEMBL1201862, “PubChem BioAssay data set” (2004).
The source made the active and inactive calls.

Tests used:
[1] = target: Sphingosine 1-phosphate receptor 2 (Homo sapiens, UniProt O95136); experiment: Dose Response Cell Based Assay for Agonists of the S1P2 Receptor of Purchased Analogues. [Related pubchem assays: 729, 843, 854, 736 ]; assay type: functional
HeLa = experiment: HeLa cell cytotoxicity, dose response, cytotoxicity control, 24 h, cherry-picked samples (AID 504726); assay type: functional, cell-based; settings: Homo sapiens;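 note: potency for cytotoxicity as loss of luminescence signal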
[2] = LGR2 antagonists, dose response, cell-based, HEK293, CRE-luciferase reporter, cherry pick, set 2 (AID 743343); assay type: functional;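 note: transfected cells were stimulated with diluted bursicon conditioned medium after compound addition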
[3] = target: Luciferin 4-monooxygenase (Photinus pyralis, UniProt P08659); experiment: Counter Screen for Luciferase-based Assay Positives. [Related pubchem assays: 620, 618, 411 ]
[4] = Luminescence Cell-Based Dose Response HTS to Identify Inhibitors of 5'UTR Stem-Loop Driven Prion Protein mRNA Translation in H4 Neuroglioblastoma Cells. [Related pubchem assays: 1827 (Project Summary), 1813 (Primary HTS)]; assay type: functional
[5] = MC4R antagonists, dose response, counter-screen for LGR2 antagonist project, cell-based, plate reader, cherry pick (AID 743444); assay type: functional;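 note: transfected HEK 293 cells stimulated with alpha-MSH peptide; potency of inhibitors of the alpha-MSH evoked signal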
[6] = inhibitors of SNCA 5'UTR-driven reporter translation, confirmation, H4 neuroglioma cells, luminescence (AID 1988); assay type: functional, cell-based
HT-1080 = experiment: cytotoxicity in HT1080 fibrosarcoma cells, cell-based, fluorescence readout (AID 620); assay type: functional; settings: Homo sapiens
Estrogen receptor = target: T1, Estrogen receptor (Homo sapiens, UniProt P03372); experiment: ERα–SRC-3 coactivator interaction inhibitors, confirmation, orthogonal assay, biochemical, ELISA, streptavidin-HRP readout (AID 1079)
T1 sequence (P03372 whole entry): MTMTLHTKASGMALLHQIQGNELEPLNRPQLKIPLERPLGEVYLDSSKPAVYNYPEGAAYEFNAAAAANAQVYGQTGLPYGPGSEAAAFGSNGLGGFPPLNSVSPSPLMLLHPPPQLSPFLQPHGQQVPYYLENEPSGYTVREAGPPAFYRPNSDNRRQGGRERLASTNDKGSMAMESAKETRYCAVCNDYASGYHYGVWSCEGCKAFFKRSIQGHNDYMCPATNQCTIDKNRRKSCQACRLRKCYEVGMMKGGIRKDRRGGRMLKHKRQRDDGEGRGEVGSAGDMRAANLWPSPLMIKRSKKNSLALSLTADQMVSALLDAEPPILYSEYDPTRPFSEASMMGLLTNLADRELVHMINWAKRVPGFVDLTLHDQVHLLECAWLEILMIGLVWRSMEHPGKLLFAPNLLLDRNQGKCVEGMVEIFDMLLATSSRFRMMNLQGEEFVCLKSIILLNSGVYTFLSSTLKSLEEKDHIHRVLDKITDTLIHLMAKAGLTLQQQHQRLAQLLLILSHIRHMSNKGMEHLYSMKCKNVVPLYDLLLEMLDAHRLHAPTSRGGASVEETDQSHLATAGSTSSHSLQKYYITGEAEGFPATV

Caspase-6 = Caspase-6 (Homo sapiens, UniProt P55212); experiment: human caspase-6 inhibitors, dose response, biochemical, VEID-R110 fluorescence, cherry-pick (AID 720632)
[7] = inhibitors of Bluetongue virus cytopathic effect, confirmation, arbovirus, BSR cells (AID 1250); assay type: functional;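 note: protection from viral cytopathic effect measured as cell viability by ATP luminescence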
[8] = microbe, parasite or virus in culture; assay type: functional; settings: Mycobacterium tuberculosis
[9] = target: Neuropeptide Y receptor type 1 (Homo sapiens, UniProt P25929); experiment: NPY-Y1 receptor antagonist potency, dose response, cell-based (AID 1277); assay type: functional
[10] = target: Neuropeptide Y receptor type 2 (Homo sapiens, UniProt P49146); experiment: NPY-Y2 antagonist potency, selectivity check, dose response, counter-screen for NPY-Y1 antagonist project, cell-based (AID 1278); assay type: functional
cells = assay type: functional
[11] = THP-1 cell cytotoxicity, dose response, cytotoxicity control for non-replicating M. tuberculosis project (AID 489025); assay type: functional
Galanin receptor type 2 = Galanin receptor type 2 (Homo sapiens, UniProt O43603); experiment: Dose Response cell-based high-throughput screening assay to identify antagonists of galanin receptor 2 (GALR2). [Related pubchem assays: 828, 866 ]; assay type: functional
Estrogen receptor beta = Estrogen receptor beta (Homo sapiens, UniProt Q92731); experiment: ERβ–SRC-3 coactivator interaction inhibitors, confirmation, orthogonal assay, biochemical, ELISA, streptavidin-HRP readout (AID 1060)
NADPH oxidase 1 [12] = target: T2, NADPH oxidase 1 (Homo sapiens, UniProt Q9Y5S8); experiment: Luminescence-based cell-based dose response assay to identify inhibitors of NADPH oxidase 1 (NOX1).; assay type: functional
T2 sequence (Q9Y5S8 whole entry): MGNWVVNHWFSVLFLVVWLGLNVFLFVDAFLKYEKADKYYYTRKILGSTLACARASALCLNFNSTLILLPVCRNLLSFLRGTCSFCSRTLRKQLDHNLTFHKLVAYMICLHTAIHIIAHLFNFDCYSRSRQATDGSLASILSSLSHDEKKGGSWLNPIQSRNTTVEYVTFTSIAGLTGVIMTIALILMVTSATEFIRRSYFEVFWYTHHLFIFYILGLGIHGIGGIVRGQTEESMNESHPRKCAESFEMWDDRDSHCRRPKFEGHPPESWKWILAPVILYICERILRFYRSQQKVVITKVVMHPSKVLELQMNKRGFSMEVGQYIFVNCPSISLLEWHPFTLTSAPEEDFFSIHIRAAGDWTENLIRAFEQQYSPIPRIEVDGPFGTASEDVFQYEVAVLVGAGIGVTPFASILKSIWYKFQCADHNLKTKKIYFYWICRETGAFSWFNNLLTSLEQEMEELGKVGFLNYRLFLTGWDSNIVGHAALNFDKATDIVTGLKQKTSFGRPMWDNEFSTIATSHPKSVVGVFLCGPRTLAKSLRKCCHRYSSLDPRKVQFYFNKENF

[13] = target: T3, Rac GTPase-activating protein 1 (Homo sapiens, UniProt Q9H0H5); experiment: MgcRacGAP GTPase-activating activity inhibitors, confirmation, biochemical, ADP Hunter fluorescence, primary and confirmatory (AID 624330); assay type: functional
T3 sequence (Q9H0H5 whole entry): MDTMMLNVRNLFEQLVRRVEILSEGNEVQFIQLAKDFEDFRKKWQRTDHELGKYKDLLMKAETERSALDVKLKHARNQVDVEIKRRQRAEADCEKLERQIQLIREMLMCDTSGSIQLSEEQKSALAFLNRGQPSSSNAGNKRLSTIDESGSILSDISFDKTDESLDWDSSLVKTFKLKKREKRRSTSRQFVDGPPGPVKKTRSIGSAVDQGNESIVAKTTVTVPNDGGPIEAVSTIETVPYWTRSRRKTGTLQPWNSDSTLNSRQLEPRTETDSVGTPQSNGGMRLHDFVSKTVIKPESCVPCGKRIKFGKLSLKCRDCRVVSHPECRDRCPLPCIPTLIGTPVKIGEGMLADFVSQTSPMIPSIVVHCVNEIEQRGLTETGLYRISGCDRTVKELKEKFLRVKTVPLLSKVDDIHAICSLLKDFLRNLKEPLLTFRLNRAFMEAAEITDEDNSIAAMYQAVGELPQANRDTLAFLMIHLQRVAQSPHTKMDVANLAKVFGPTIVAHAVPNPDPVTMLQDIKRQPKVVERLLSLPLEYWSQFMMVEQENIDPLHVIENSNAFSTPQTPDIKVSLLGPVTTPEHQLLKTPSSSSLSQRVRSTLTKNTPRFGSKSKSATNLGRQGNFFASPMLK

NADPH oxidase 1 [14] = target: T2, NADPH oxidase 1; assay type: functional, cell-based
[15] = A Cell Based Secondary Assay To Explore Cytotoxicity of Compounds that Sensitize Mycobacterium Tuberculosis to Beta-Lactam Antibiotics.; assay type: functional
Vero = experiment: cells; assay type: functional; settings: Chlorocebus sabaeus
[16] = A cytotoxicity screen of small molecule inhibitors of the PhoP region in Salmonella typhi identified in the primary screen. [Related pubchem assays: 1850, 1864, 1985 ]; assay type: functional
[17] = target: Acyl-homoserine lactone acylase PvdQ (Pseudomonas aeruginosa (strain LESB58), UniProt Q9I194); experiment: P. aeruginosa PvdQ acylase inhibitors, dose response, biochemical, fluorescence, plate reader and imaging, cherry-picks (AID 493231)
[18] = target: Polyadenylate-binding protein 1 (Homo sapiens, UniProt P11940); experiment: PABP poly(A) RNA binding inhibitors, primary screen, biochemical, fluorescence polarization, uHTS (AID 2014)
[19] = target: Eukaryotic translation initiation factor 4H (Homo sapiens, UniProt Q15056); experiment: human eIF4H binding inhibitors, primary screen, translation initiation inhibitor project, biochemical, uHTS, fluorescence polarization (AID 2012)
NS3 = NS3 (Hepatitis C virus, UniProt A3EZJ3); experiment: PubChem AID 2173; design: species or system Hepacivirus hominis
[20] = target: Serine/threonine-protein phosphatase (Homo sapiens, UniProt Q9BPW0); experiment: Counterscreen for inhibitors of PP1: fluorescence-based biochemical high throughput dose response assay to identify inhibitors of Protein Phosphatase 5 (PP5). [Related pubchem assays: 2034 (Summary (PP5 inhibitors)), 1987 (PP5 inhibitors in singlate), 2235 (PP1 inhibitors in singlate)]
[21] = target: Serine/threonine-protein phosphatase PP1-alpha catalytic subunit (Homo sapiens, UniProt P62136); experiment: PP1 phosphatase inhibitors, dose response, biochemical, fluorescence (AID 2403);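 note: phosphatase turnover of OMFP into fluorescent 3-O-methylfluorescein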
[22] = target: Signal transducer and activator of transcription 3 (Homo sapiens, UniProt P40763); experiment: STAT3 activators, late-stage profile, late-stage follow-up, cell-based, STAT1 reporter, BCL3 qPCR, cytotoxicity, panel member STAT3 Activation (AID 2049)
Sequence of Signal transducer and activator of transcription 3 (P40763 whole entry): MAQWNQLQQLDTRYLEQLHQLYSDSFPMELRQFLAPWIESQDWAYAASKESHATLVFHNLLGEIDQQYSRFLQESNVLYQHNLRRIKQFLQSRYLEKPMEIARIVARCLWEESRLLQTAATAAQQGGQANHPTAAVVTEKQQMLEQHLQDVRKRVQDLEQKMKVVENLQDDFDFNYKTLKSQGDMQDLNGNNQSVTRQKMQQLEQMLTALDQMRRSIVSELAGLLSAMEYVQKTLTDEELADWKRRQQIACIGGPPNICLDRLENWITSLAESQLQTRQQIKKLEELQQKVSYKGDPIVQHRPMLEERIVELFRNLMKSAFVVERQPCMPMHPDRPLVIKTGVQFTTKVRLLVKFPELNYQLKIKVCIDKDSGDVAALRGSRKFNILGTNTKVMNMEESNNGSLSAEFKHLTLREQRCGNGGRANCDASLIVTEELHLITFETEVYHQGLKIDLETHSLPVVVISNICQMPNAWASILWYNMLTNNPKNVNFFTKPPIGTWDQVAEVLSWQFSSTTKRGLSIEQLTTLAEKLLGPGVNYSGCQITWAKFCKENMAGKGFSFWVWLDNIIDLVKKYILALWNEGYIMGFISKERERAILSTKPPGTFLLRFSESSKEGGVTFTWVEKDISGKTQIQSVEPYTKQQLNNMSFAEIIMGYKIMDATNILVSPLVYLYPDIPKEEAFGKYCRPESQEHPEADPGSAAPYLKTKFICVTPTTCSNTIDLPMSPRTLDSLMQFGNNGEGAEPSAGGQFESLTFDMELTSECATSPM

Sequence of Caspase-6 (P55212 24-179 limits assumed): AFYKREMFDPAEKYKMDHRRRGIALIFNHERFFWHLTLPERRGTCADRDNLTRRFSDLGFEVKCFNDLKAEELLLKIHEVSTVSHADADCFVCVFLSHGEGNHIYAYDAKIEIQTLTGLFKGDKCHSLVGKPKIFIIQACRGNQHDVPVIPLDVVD
Sequence of Caspase-6 (P55212 194-293 limits assumed): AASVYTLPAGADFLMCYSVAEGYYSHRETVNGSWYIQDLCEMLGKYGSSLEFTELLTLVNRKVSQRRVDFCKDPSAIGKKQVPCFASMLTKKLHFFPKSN
Sequence of Polyadenylate-binding protein 1 (P11940 whole entry): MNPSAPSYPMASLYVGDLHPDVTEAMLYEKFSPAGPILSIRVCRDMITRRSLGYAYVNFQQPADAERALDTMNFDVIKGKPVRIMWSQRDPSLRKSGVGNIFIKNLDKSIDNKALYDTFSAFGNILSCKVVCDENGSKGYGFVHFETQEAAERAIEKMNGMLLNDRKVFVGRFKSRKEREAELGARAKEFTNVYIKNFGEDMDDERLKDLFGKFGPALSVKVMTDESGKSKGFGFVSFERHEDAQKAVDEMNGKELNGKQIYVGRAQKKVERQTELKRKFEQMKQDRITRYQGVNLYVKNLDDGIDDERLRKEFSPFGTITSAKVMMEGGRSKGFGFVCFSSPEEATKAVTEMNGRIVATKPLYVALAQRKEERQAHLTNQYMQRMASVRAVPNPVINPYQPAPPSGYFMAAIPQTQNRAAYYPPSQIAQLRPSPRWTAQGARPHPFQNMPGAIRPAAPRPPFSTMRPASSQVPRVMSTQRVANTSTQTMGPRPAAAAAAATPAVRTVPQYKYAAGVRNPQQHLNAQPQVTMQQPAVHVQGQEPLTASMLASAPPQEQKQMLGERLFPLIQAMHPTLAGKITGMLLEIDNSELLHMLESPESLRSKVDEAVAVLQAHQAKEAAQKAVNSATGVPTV
Sequence of Acyl-homoserine lactone acylase PvdQ (Q9I194 24-193 limits assumed): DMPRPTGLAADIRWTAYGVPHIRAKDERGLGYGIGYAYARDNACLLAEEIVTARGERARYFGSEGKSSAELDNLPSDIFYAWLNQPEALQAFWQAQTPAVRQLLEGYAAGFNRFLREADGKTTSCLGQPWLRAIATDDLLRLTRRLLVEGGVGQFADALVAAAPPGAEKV
Sequence of Acyl-homoserine lactone acylase PvdQ (Q9I194 217-762 limits assumed): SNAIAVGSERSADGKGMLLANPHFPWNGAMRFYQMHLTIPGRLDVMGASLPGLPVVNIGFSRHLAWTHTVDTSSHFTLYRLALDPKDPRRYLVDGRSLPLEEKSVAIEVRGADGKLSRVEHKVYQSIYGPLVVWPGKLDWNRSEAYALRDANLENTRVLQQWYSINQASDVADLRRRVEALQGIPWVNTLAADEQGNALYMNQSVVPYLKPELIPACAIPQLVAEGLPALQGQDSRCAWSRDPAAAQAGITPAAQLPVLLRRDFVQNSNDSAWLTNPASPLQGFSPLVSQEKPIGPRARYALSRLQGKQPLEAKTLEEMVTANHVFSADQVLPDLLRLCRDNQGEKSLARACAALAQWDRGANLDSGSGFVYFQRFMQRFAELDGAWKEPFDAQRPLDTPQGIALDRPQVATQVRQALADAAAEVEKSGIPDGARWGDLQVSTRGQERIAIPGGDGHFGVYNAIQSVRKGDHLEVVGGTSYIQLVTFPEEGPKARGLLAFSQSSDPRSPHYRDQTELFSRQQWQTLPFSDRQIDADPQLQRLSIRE
Sequence of Galanin receptor type 2 (O43603 whole entry): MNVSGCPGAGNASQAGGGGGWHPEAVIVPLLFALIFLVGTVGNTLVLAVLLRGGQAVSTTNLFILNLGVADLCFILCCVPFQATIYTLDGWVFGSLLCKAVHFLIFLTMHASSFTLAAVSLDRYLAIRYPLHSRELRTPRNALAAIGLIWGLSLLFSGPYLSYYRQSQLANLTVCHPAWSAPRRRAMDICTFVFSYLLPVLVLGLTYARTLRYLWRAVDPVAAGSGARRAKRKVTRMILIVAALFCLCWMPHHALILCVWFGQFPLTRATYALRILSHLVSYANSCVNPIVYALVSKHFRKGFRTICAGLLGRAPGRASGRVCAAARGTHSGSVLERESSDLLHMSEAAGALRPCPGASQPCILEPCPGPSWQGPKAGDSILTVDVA
Sequence of NS3 (A3EZJ3 whole entry): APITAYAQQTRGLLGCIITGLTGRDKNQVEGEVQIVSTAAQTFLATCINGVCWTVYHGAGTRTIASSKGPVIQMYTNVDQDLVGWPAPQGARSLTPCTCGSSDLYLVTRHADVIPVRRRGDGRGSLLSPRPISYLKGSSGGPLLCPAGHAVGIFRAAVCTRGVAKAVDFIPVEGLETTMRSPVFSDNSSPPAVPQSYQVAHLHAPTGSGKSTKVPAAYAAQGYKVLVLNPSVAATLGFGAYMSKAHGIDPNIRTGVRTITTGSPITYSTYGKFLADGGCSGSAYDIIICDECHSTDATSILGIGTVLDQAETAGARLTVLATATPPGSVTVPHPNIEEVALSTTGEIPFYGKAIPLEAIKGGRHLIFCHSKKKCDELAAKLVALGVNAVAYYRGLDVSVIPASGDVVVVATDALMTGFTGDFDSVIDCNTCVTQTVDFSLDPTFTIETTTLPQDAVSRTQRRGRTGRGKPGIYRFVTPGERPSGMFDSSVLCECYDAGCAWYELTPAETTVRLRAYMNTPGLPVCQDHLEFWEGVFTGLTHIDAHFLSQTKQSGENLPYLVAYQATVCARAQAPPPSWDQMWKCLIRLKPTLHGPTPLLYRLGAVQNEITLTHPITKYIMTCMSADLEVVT
Sequence of Serine/threonine-protein phosphatase PP1-alpha catalytic subunit (P62136 whole entry): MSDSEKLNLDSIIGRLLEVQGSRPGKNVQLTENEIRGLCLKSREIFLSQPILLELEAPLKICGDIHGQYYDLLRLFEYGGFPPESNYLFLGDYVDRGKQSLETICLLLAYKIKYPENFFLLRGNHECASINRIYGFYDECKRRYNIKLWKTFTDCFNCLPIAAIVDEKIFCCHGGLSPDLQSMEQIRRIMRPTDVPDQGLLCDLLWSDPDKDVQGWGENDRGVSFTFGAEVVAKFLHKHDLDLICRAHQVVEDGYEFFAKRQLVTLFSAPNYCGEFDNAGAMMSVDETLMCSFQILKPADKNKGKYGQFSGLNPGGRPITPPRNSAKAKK
Sequence of Neuropeptide Y receptor type 2 (P49146 whole entry): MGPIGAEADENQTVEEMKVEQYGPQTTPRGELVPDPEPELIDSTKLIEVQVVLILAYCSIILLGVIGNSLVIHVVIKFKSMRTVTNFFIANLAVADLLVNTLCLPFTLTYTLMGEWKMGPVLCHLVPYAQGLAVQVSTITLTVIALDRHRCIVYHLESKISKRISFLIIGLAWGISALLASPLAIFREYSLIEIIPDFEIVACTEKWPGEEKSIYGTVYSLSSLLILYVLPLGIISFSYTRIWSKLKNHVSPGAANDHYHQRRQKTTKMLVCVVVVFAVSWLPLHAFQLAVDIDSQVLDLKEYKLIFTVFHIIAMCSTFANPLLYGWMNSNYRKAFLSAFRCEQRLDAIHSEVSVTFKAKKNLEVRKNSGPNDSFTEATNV
Sequence of Neuropeptide Y receptor type 1 (P25929 whole entry): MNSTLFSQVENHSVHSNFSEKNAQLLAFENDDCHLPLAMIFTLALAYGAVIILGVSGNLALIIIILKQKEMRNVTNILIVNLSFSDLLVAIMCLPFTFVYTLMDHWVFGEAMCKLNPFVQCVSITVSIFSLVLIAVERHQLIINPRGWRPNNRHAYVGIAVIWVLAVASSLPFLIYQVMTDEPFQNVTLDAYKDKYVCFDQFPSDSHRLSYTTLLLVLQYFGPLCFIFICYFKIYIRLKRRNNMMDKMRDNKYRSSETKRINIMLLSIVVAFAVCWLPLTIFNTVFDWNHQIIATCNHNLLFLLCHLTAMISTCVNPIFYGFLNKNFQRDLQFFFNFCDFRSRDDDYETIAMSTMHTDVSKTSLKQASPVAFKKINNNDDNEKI

Cc1sc2ncn(CC(=O)c3cc(C)n(Cc4ccccc4)c3C)c(=O)c2c1C
EC50 [1]: > 30 µM (not active)

CCCN(CCC)C(=O)C1c2ccccc2Oc2ccccc21
AC50 (HeLa): 81.4 µM (active)

O=C(Nc1nc2c(s1)CCCC2)C1COc2ccccc2O1 (stereo unspecified)
AC50 [2]: 6.29 µM (active) | EC50 [3]: < 0.2 µM (active) | EC50 [4]: 6.51 µM (active) | AC50 [5]: 12.1 µM (active) | EC50 [6]: 5.78 µM (active) | EC50 (HT-1080): > 50 µM (not active)

O=C(CCCn1c(=S)[nH]c2ccccc2c1=O)N1CCN(c2cccc(O)c2)CC1
IC50 (Estrogen receptor): 1.62 µM (not active)

O=C(O)C1CCCCC1C(=O)Nc1nc(-c2ccc(Cl)s2)cs1 (stereo unspecified)
AC50 (Caspase-6): 32.9 µM (active) | IC50 [7]: 38.5 µM (active)

Cc1ccc(-n2cc(CNCCn3nc(C)cc3C)c(-c3ccc(F)cc3)n2)cc1
CC50 [8]: > 40 µM (active) | IC50 [9]: 10.6 µM (not active) | IC50 [10]: > 35 µM (not active) | IC50 (cells): 4.38 µM (active) | CC50 [11]: 23.5 µM (active)

O=C(/C=C/c1ccc(Cl)cc1)NC(=S)Nc1ccc(NC(=O)c2ccco2)cc1
IC50 (Galanin receptor type 2): 6.76 µM (active)

COc1ccc(NC(=O)Nc2ccc(N(C)C)cc2)cc1
IC50 (Estrogen receptor beta): 14.4 µM (not active) | IC50 (NADPH oxidase 1 [12]): 0.156 µM (active) | IC50 [13]: 23.5 µM (active) | IC50 (NADPH oxidase 1 [14]): 0.432 µM (active)

Cn1c(=O)c2ccccc2n2c(CCl)nnc12
CC50 [15]: 30.5 µM (active) | CC50 (Vero): 18 µM (active)

O=C(Nc1ccc(Cl)cc1)c1cccs1
EC50 [16]: > 50 µM (active)

N#CC(c1ccc(Cl)nn1)c1ccc(Cl)cc1Cl (stereo unspecified)
AC50 [17]: 0.646 µM (active)

O=C(C[n+]1ccccc1)c1ccc(Cl)cc1
IC50 [18]: 5.96 µM (active) | IC50 [19]: > 100 µM (inactive)

CCCOc1ccc(C2C(C(=O)c3ccc(C)o3)=C(O)C(=O)N2Cc2ccco2)cc1OCC (stereo unspecified)
IC50 (NS3): 5.19 µM (active)

CCn1c2ccccc2c2cc(NC(=O)COC(=O)c3ccc(NC(=O)CC#N)cc3)ccc21
IC50 [20]: > 67 µM (not active) | IC50 [21]: 7.27 µM (active)

COc1cc(NC(=O)c2cc(C3CC3)on2)ccc1Br
EC50 [22]: > 5.57 µM (inactive)
